Laboratory results: the supplement of paper PMC10307832

Columns and labels:
Assay in all cases: relative viability (nuclei count vs DMSO), 5 days (fraction); higher = more cells survive
VX-11e + Foretinib = compound: CC1=CN=C(N=C1C2=CNC(=C2)C(=O)N[C@H](CO)C3=CC(=CC=C3)Cl)NC4=C(C=C(C=C4)F)Cl [VX-11e] + COc1cc2c(Oc3ccc(NC(=O)C4(C(=O)Nc5ccc(F)cc5)CC4)cc3F)ccnc2cc1OCCCN1CCOCC1 [Foretinib] (partner 0.25 µM)
Procedure, shortened: (§1)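 Relative viability is defined as nuclei in treated wells over nuclei in vehicle wells. Duplicate plates were run and medians reported. Lung cancer cell lines in 1536-well plates were dosed by pin tool one day after seeding, with one drug or with a fixed anchor-drug dose plus five library-drug doses (not always all listed) in √10 steps, and nuclei were counted after 5 days.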

VX-11e + Alpelisib = compound: CC1=CN=C(N=C1C2=CNC(=C2)C(=O)N[C@H](CO)C3=CC(=CC=C3)Cl)NC4=C(C=C(C=C4)F)Cl [VX-11e] + Cc1nc(NC(=O)N2CCC[C@H]2C(N)=O)sc1-c1ccnc(C(C)(C)C(F)(F)F)c1 [Alpelisib] (partner 2 µM)
Procedure, shortened: as §1

VX-11e + Olaparib = compound: CC1=CN=C(N=C1C2=CNC(=C2)C(=O)N[C@H](CO)C3=CC(=CC=C3)Cl)NC4=C(C=C(C=C4)F)Cl [VX-11e] + O=C(c1cc(Cc2n[nH]c(=O)c3ccccc23)ccc1F)N1CCN(C(=O)C2CC2)CC1 [Olaparib] (partner 8 µM)
Procedure, shortened: as §1

VX-11e + Pemetrexed = compound: CC1=CN=C(N=C1C2=CNC(=C2)C(=O)N[C@H](CO)C3=CC(=CC=C3)Cl)NC4=C(C=C(C=C4)F)Cl [VX-11e] + Nc1nc2[nH]cc(CCc3ccc(C(=O)N[C@@H](CCC(=O)O)C(=O)O)cc3)c2c(=O)[nH]1 [Pemetrexed] (partner 0.2 µM)
Procedure, shortened: as §1

Cell Line	relative viability (VX-11e + Foretinib; first compound 0.04 µM)	relative viability (VX-11e + Foretinib; first compound 0.1265 µM)	relative viability (VX-11e + Foretinib; first compound 0.4 µM)	relative viability (VX-11e + Foretinib; first compound 1.265 µM)	relative viability (VX-11e + Foretinib; first compound 4 µM)	relative viability (VX-11e + Alpelisib; first compound 0.04 µM)	relative viability (VX-11e + Alpelisib; first compound 0.1265 µM)	relative viability (VX-11e + Alpelisib; first compound 0.4 µM)	relative viability (VX-11e + Alpelisib; first compound 1.265 µM)	relative viability (VX-11e + Alpelisib; first compound 4 µM)	relative viability (VX-11e + Olaparib; first compound 0.04 µM)	relative viability (VX-11e + Olaparib; first compound 0.1265 µM)	relative viability (VX-11e + Olaparib; first compound 0.4 µM)	relative viability (VX-11e + Olaparib; first compound 1.265 µM)	relative viability (VX-11e + Olaparib; first compound 4 µM)	relative viability (VX-11e + Pemetrexed; first compound 0.04 µM)	relative viability (VX-11e + Pemetrexed; first compound 0.1265 µM)	relative viability (VX-11e + Pemetrexed; first compound 0.4 µM)	relative viability (VX-11e + Pemetrexed; first compound 1.265 µM)	relative viability (VX-11e + Pemetrexed; first compound 4 µM)
HARA	0.857	0.856	0.841	0.734	0.343	0.772	0.776	0.787	0.865	0.338	0.893	0.705	0.939	0.295	0.525	0.253	0.236	0.26	0.186	0.131
H3255	0.734	0.963	0.87	0.918	0.948	0.662	0.617	0.436	0.688	0.562	0.582	0.544	0.496	0.552	0.497	0.478	0.565	0.523	0.513	0.47
UMC-11	1.05	0.946	0.986	0.976	0.905	0.921	1	0.962	0.97	0.973	0.377	0.369	0.331	0.335	0.38	0.799	0.762	0.866	0.754	0.681
NCI-H2170	0.995	1.13	0.906	0.953	0.812	0.76	0.71	0.758	0.719	0.71	0.635	0.662	0.603	0.629	0.534	0.222	0.254	0.232	0.247	0.254
EMC-BAC-2	1.05	0.921	1.08	0.982	0.697	0.731	0.662	0.687	0.618	0.534	0.529	0.492	0.468	0.711	0.636	0.473	0.423	0.631	0.511	0.549
NCI-H3122	0.948	0.897	–	0.851	0.487	0.652	0.753	0.566	0.672	0.329	0.717	0.661	0.689	0.558	0.468	0.202	0.205	0.162	0.171	0.152
EPLC-272H	0.622	0.559	–	0.361	0.261	0.742	0.702	0.823	0.835	0.512	0.771	0.833	0.588	0.38	0.219	0.334	0.39	0.408	0.305	0.253
LU99A	0.806	0.729	0.894	0.805	0.362	0.423	0.38	0.574	0.209	0.175	0.248	0.247	0.298	0.226	0.221	0.184	0.138	0.201	0.182	0.188
LXF-289	1	0.877	0.88	0.85	0.637	1.05	0.962	0.961	0.942	0.695	1.15	0.997	–	1.01	0.736	0.974	0.911	–	0.803	0.706
NCI-H1944	0.896	0.851	–	0.806	0.505	0.843	0.809	0.785	0.557	0.399	0.405	0.417	0.376	0.345	0.328	0.602	0.77	0.382	0.505	0.374
NCI-H647	1.26	1.12	1.19	1.05	0.405	1.32	1.19	1.05	0.551	0.282	0.627	0.591	0.617	0.422	0.303	0.187	0.198	0.177	0.137	0.123
201T	1.12	0.959	–	–	1.03	1.01	0.989	0.995	1.08	0.92	0.846	0.809	0.832	0.792	0.773	0.347	0.344	0.317	0.249	0.31
NCI-H358	0.354	0.541	0.347	0.434	0.147	0.857	0.89	–	0.541	0.237	0.594	0.525	0.525	0.441	0.163	0.188	0.171	0.17	0.171	0.136
NCI-H441	1.14	1.2	–	1.05	0.937	0.804	0.709	–	0.977	0.633	0.553	0.572	–	0.702	0.591	0.27	0.253	–	0.259	0.238
